Test results from PubChem BioAssay AID248 (DTP/NCI, 2004).
Values joined by “and” are separate entries in the source; they are usually repeats but may differ in a detail not shown here. Equal entries are not always repeated. Toxic doses and inconclusive results are not listed.

Tested on: L1210 leukemia ip in BDF1 mice, survival T/C
Assay: NCI In Vivo Anticancer Drug Screen. Data for tumor model L1210 Leukemia (intraperitoneal) in B6D2F1 (BDF1) mice
Details: endpoint: mean survival time, higher = longer survival
Procedure, shortened: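 Value reflects the ratio of survival in compound-treated mice to survival in vehicle-treated controls, with both groups carrying the same transplanted tumor.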

[1] = dose: 100.0 mg/kg/injection, schedule: Q01DX009 (ip), vehicle: Klucel (hydroxypropylcellulose) (HPC)
[2] = dose: 100.0 mg/kg/injection, schedule: Q04DX003 (ip), vehicle: Klucel (hydroxypropylcellulose) (HPC)
[3] = dose: 200.0 mg/kg/injection, schedule: Q01DX009 (ip), vehicle: Klucel (hydroxypropylcellulose) (HPC)
[4] = dose: 200.0 mg/kg/injection, schedule: Q04DX003 (ip), vehicle: Klucel (hydroxypropylcellulose) (HPC)
[5] = dose: 400.0 mg/kg/injection, schedule: Q01DX009 (ip), vehicle: Klucel (hydroxypropylcellulose) (HPC)
[6] = dose: 400.0 mg/kg/injection, schedule: Q04DX003 (ip), vehicle: Klucel (hydroxypropylcellulose) (HPC)
[7] = dose: 100.0 mg/kg/injection, schedule: Q04DX002 (ip), vehicle: Klucel (hydroxypropylcellulose) (HPC)
[8] = dose: 200.0 mg/kg/injection, schedule: Q04DX002 (ip), vehicle: Klucel (hydroxypropylcellulose) (HPC)
[9] = dose: 100.0 mg/kg/injection, schedule: Q01DX001 (ip), vehicle: saline
[10] = dose: 200.0 mg/kg/injection, schedule: Q01DX001 (ip), vehicle: saline
[11] = dose: 400.0 mg/kg/injection, schedule: Q01DX001 (ip), vehicle: saline
[12] = dose: 100.0 mg/kg/injection, schedule: Q01DX009 (ip), vehicle: saline with Tween-80
[13] = dose: 200.0 mg/kg/injection, schedule: Q01DX009 (ip), vehicle: saline with Tween-80
[14] = dose: 400.0 mg/kg/injection, schedule: Q01DX009 (ip), vehicle: saline with Tween-80
[15] = dose: 100.0 mg/kg/injection, schedule: Q04DX003 (ip), vehicle: saline with Tween-80
[16] = dose: 200.0 mg/kg/injection, schedule: Q04DX003 (ip), vehicle: saline with Tween-80
[17] = dose: 400.0 mg/kg/injection, schedule: Q01DX009 (ip), vehicle: saline
[18] = dose: 400.0 mg/kg/injection, schedule: Q04DX003 (ip), vehicle: saline with Tween-80
[19] = dose: 50.0 mg/kg/injection, schedule: Q01DX009 (ip), vehicle: saline with Tween-80

In the case of `N#CN1CC(C(=O)N2CCCCC2)C=C2c3cccc4[nH]cc(c34)CC21` (stereo not given), the T/C (dose: 4.0 mg/kg/injection, schedule: Q04DX003 (ip), vehicle: saline) is reported as 96 % of control, the T/C (dose: 6.25 mg/kg/injection, schedule: Q04DX003 (ip), vehicle: saline) is reported as 119 % of control and the T/C (dose: 8.0 mg/kg/injection, schedule: Q04DX003 (ip), vehicle: saline) is reported as 95 % of control. The T/C (dose: 12.5 mg/kg/injection, schedule: Q04DX003 (ip), vehicle: saline) was 118 % of control, the T/C (dose: 16.0 mg/kg/injection, schedule: Q04DX003 (ip), vehicle: saline) was 86 % of control and the T/C (dose: 25.0 mg/kg/injection, schedule: Q04DX003 (ip), vehicle: saline) was 115 % of control. For the same molecule, the T/C (dose: 50.0 mg/kg/injection, schedule: Q04DX003 (ip), vehicle: saline) was 90 % of control.

`COc1ccc(CC(CO)C(CO)Cc2ccc(OC)c(OC)c2)cc1OC` (stereo not given) was tested, and the T/C [1] was 97 % of control, the T/C [2] was 98 % of control and the T/C [3] was 93 % of control. For the same molecule, the T/C [4] was 101 % of control, the T/C [5] was 93 % of control and the T/C [6] was 100 % of control.

In the case of `Oc1ccccc1/C=N\N=C\c1ccccc1O`, the T/C (dose: 50.0 mg/kg/injection, schedule: Q04DX002 (ip), vehicle: Klucel (hydroxypropylcellulose) (HPC)) is reported as 93 % of control, the T/C (dose: 100.0 mg/kg/injection, schedule: Q01DX001 (ip), vehicle: other) is reported as 97 % of control and the T/C [7] is reported as 101 % of control. For the same molecule, the T/C (dose: 200.0 mg/kg/injection, schedule: Q01DX001 (ip), vehicle: other) was 103 % of control, the T/C [8] was 112 % of control and the T/C (dose: 400.0 mg/kg/injection, schedule: Q01DX001 (ip), vehicle: other) was 94 % of control.

With `O=S(=O)(C(Br)Br)C(Br)c1ccccc1` (stereo not given) the T/C [9] was 93 % of control, the T/C [10] was 101 % of control and the T/C [11] was 87 % of control.

In the case of `BrCC[CH2][Sn]([Br])([Br])[Br]`, the T/C (dose: 50.0 mg/kg/injection, schedule: Q01DX009 (ip), vehicle: saline) is reported as 107 % of control and the T/C (dose: 100.0 mg/kg/injection, schedule: Q01DX009 (ip), vehicle: saline) is reported as 103 % of control.

With `Cc1cccc(Cl)c1NC(=O)CS` the T/C [12] was 104 % of control, the T/C [13] was 101 % of control and the T/C [14] was 106 % of control.

For `CCCN(CCC)N=Nc1c(C(=O)OC)n[nH]c1C`, the T/C (dose: 50.0 mg/kg/injection, schedule: Q04DX003 (ip), vehicle: saline with Tween-80) was 103 % of control, the T/C [15] was 104 % of control and 109 % of control and the T/C (dose: 175.0 mg/kg/injection, schedule: Q01DX009 (ip), vehicle: saline) was 124 % of control. For the same molecule, the T/C [16] was 104 % of control and 109 % of control, the T/C [17] was 96 % of control and the T/C [18] was 102 % of control.

In the case of `O=C1OCC/C1=C/OCCCCO/C=C1/CCOC1=O`, the T/C [7] is reported as 97 % of control, the T/C [8] is reported as 97 % of control and the T/C (dose: 400.0 mg/kg/injection, schedule: Q04DX002 (ip), vehicle: Klucel (hydroxypropylcellulose) (HPC)) is reported as 94 % of control.

For `O=C1CN=C(c2ccccn2)c2cc(Cl)ccc2N1`, the T/C (dose: 50.0 mg/kg/injection, schedule: Q01DX009 (ip), vehicle: water) was 98 % of control, the T/C (dose: 100.0 mg/kg/injection, schedule: Q01DX009 (ip), vehicle: water) was 97 % of control and the T/C (dose: 200.0 mg/kg/injection, schedule: Q01DX009 (ip), vehicle: water) was 104 % of control. For the same molecule, the T/C (dose: 200.0 mg/kg/injection, schedule: Q04DX003 (ip), vehicle: none) was 99 % of control, the T/C (dose: 200.0 mg/kg/injection, schedule: Q04DX003 (ip), vehicle: water) was 100 % of control and the T/C (dose: 267.0 mg/kg/injection, schedule: Q01DX009 (ip), vehicle: saline) was 97 % of control. For the same molecule, the T/C [17] was 110 % of control, the T/C (dose: 400.0 mg/kg/injection, schedule: Q01DX009 (ip), vehicle: water) was 198 % of control and the T/C (dose: 400.0 mg/kg/injection, schedule: Q04DX003 (ip), vehicle: none) was 101 % of control. For the same molecule, the T/C (dose: 400.0 mg/kg/injection, schedule: Q04DX003 (ip), vehicle: water) was 102 % of control, the T/C (dose: 600.0 mg/kg/injection, schedule: Q04DX003 (ip), vehicle: none) was 101 % of control and the T/C (dose: 600.0 mg/kg/injection, schedule: Q04DX003 (ip), vehicle: water) was 102 % of control.

For `CCOC(=O)C(CC)c1nc2ccccc2o1` (stereo not given), the T/C [19] was 109 % of control, the T/C [12] was 100 % of control and the T/C [13] was 95 % of control. The T/C [14] was 94 % of control.

With `CN(C1CCCCC1)C1CCCCC1` the T/C (dose: 6.25 mg/kg/injection, schedule: Q01DX009 (ip), vehicle: Klucel (hydroxypropylcellulose) (HPC)) was 100 % of control, the T/C (dose: 12.5 mg/kg/injection, schedule: Q01DX009 (ip), vehicle: Klucel (hydroxypropylcellulose) (HPC)) was 91 % of control and the T/C (dose: 25.0 mg/kg/injection, schedule: Q01DX009 (ip), vehicle: Klucel (hydroxypropylcellulose) (HPC)) was 96 % of control and 107 % of control. For the same molecule, the T/C (dose: 25.0 mg/kg/injection, schedule: Q04DX003 (ip), vehicle: Klucel (hydroxypropylcellulose) (HPC)) was 97 % of control, the T/C (dose: 50.0 mg/kg/injection, schedule: Q04DX003 (ip), vehicle: Klucel (hydroxypropylcellulose) (HPC)) was 102 % of control and the T/C (dose: 75.0 mg/kg/injection, schedule: Q01DX001 (ip), vehicle: saline) was 108 % of control. For the same molecule, the T/C [2] was 97 % of control and the T/C (dose: 150.0 mg/kg/injection, schedule: Q01DX001 (ip), vehicle: saline) was 109 % of control.

For `O=C(O)CC(NC(=O)OCc1ccccc1)C(=O)OCc1ccccc1` (stereo not given), the T/C [12] was 107 % of control, the T/C [15] was 104 % of control and the T/C [13] was 93 % of control. For the same molecule, the T/C [16] was 107 % of control, the T/C [14] was 91 % of control and the T/C [18] was 96 % of control.

With `CC1CCC(C(C)C)=C(C2CCCCC2)C1` (stereo not given) the T/C (dose: 100.0 mg/kg/injection, schedule: Q04DX003 (ip), vehicle: saline) was 98 % of control, the T/C (dose: 200.0 mg/kg/injection, schedule: Q04DX003 (ip), vehicle: saline) was 104 % of control and the T/C (dose: 400.0 mg/kg/injection, schedule: Q04DX003 (ip), vehicle: saline) was 87 % of control.

For `COC(=O)CC(N)C(=O)OC` (stereo not given), the T/C [9] was 89 % of control, the T/C [10] was 86 % of control and the T/C [11] was 90 % of control.

`Fc1ccc(Nc2c3ccccc3nc3ccccc23)cc1` was tested, and the T/C (dose: 25.0 mg/kg/injection, schedule: Q01DX009 (ip), vehicle: saline with Tween-80) was 92 % of control, the T/C [19] was 118 % of control and the T/C [12] was 116 % of control.

In the case of `CC(=O)[O][Hg][c]1ccc(Cl)cc1`, the T/C (dose: 5.0 mg/kg/injection, schedule: Q01DX001 (ip), vehicle: saline) is reported as 89 % of control, the T/C (dose: 10.0 mg/kg/injection, schedule: Q01DX001 (ip), vehicle: saline) is reported as 94 % of control and the T/C (dose: 20.0 mg/kg/injection, schedule: Q01DX001 (ip), vehicle: saline) is reported as 96 % of control. For the same molecule, the T/C (dose: 40.0 mg/kg/injection, schedule: Q01DX001 (ip), vehicle: saline) was 89 % of control and the T/C (dose: 80.0 mg/kg/injection, schedule: Q01DX001 (ip), vehicle: saline) was 91 % of control.

For `COC(=O)C1ON(C(=O)c2ccccc2)C(C)C(O)C1I` (stereo not given), the T/C [2] was 96 % of control, the T/C [4] was 97 % of control and the T/C [6] was 92 % of control.

In the case of `O=C(CCCCCCCCC(=O)NCC1(c2ccccc2)CCNCC1)NCC1(c2ccccc2)CCNCC1`, the T/C (dose: 1.25 mg/kg/injection, schedule: Q01DX Z (ip), vehicle: saline) is reported as 89 % of control, the T/C (dose: 2.5 mg/kg/injection, schedule: Q01DX Z (ip), vehicle: saline) is reported as 88 % of control and the T/C (dose: 10.0 mg/kg/injection, schedule: Q01DX Z (ip), vehicle: saline) is reported as 97 % of control and 88 % of control. For the same molecule, the T/C (dose: 30.0 mg/kg/injection, schedule: Q01DX Z (ip), vehicle: saline) was 87 % of control.

For `CCC(=O)c1ccc(-c2ccccc2)cc1`, the T/C (dose: 175.0 mg/kg/injection, schedule: Q04DX002 (ip), vehicle: Klucel (hydroxypropylcellulose) (HPC)) was 102 % of control and the T/C (dose: 350.0 mg/kg/injection, schedule: Q04DX002 (ip), vehicle: Klucel (hydroxypropylcellulose) (HPC)) was 98 % of control.

With `COc1c(NC(=O)CC(C)=O)cccc1NC(=O)CC(C)=O` the T/C [1] was 108 % of control, the T/C [2] was 100 % of control and the T/C [3] was 111 % of control. For the same molecule, the T/C [4] was 103 % of control, the T/C [5] was 97 % of control and the T/C [6] was 94 % of control.
